In US4721775A, “Effective peptides related to the luteinizing hormone releasing hormone from L-amino acids” (Board of Regents, The University of Texas System, priority 1985, dated 1988):
Where “and” joins values, the source holds several entries; their conditions need not be identical. Identical values can stand only once. Entries after “also recorded” stand apart in the source; their conditions may differ. Non-standard residues stand in square brackets, D forms with d. Residues, ends and D or L forms follow the SMILES beside them. pGlu = O=C1CC[C@@H](C(=O)O)N1

How the values were obtained:
release of FSH [1] = assay: Release of FSH in rats after sc injection; assay type: in vivo; conditions: for release of FSH: in our assays
Description: (§1) The data on the release of LH and FSH in rats by modifications of LHRH with one structural change are in Table II.
(§2) Exclusive of the salmon-LHRH, only one of the six decapeptides with two structural changes had significant activity.

release of LH [2] = assay: Release of LH in rats after sc injection; assay type: in vivo; conditions: for release of LH compared with LHRH: sc injection, dose and time as stated in the source; for release of LH: in our assays
Description: as §1, §2

[3] = system: rat anterior pituitary cells in primary culture; conditions: cited from earlier work; for activity (potency) to release LH relative to P/O LHRH: in vitro, rat pituitary cells, Sherwood et al. (a), Miyamoto et al. (b); for activities to release LH compared with LHRH (Table I): fraction of the activities of LHRH or words
rat pituitary cells = conditions: cited from earlier work; for activity to release FSH relative to P/O LHRH: in vitro, rat pituitary cells, Miyamoto et al. (b); for activities to release FSH compared with LHRH (Table I): fraction of the activities of LHRH or words
release of FSH [4] = conditions: comparison with purified hypothalamic fractions; cited from earlier work
[5] = target: T1, receptor identified with LHRH (Rattus norvegicus, UniProt P30969); assay: Radio receptor assay (RRA) with 125I-D-Lys6-LHRH as ligand; assay type: binding; conditions: relative to LHRH
T1 construct: in tissue there is very likely a different receptor; from tissue
T1 sequence (P30969 1-327): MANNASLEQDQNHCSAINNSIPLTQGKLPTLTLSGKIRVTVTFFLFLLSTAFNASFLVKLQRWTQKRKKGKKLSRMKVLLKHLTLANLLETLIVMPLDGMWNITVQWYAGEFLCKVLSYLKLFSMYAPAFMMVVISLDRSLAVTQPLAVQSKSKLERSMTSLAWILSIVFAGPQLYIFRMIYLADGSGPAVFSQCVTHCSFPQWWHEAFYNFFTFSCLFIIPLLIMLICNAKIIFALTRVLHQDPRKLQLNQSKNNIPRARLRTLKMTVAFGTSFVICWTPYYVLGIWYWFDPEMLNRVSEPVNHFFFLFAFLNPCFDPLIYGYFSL
Description: Data are included in Table II, III, IV and V from radio receptor assays as described by Heber et al. (Am. J. Physiol. […]: E227-E230 (1978)).
For the radio receptor assay, labelled ^125 I-D-Lys^6 -LHRH, was utilized as the ligand. The results are expressed as the relative inhibitory binder of the analog to LHRH at ID50 values.

release of FSH [6] = assay: Release of FSH in rats after sc injection; assay type: in vivo; conditions: dose and time as stated in the source
release of FSH [7] = conditions: at 1000 and 5000 ng; cited from earlier work
release of LH [8] = conditions: at 1000 and 5000 ng; cited from earlier work
[9] = 15 min. after sc injection, 50 ng, LHRH = 100
[10] = 15 min. after sc injection, 100 ng, LHRH = 100
[11] = 15 min. after sc injection, 100 ng, experiment marked *
[12] = 15 min. after sc injection, 100 ng, experiment marked *, LHRH* = 100
[13] = 15 min. after sc injection, 1000 ng, LHRH = 100
[14] = 15 min. after sc injection, 1000 ng, experiment marked *
[15] = 30 min. after sc injection, 50 ng, LHRH = 100
[16] = 30 min. after sc injection, 100 ng, LHRH = 100
[17] = 30 min. after sc injection, 1000 ng, LHRH = 100
[18] = 60 min. after sc injection, 300 ng, LHRH = 100
[19] = 60 min. after sc injection, 3000 ng, LHRH = 100
[20] = release 15 min. after sc injection, dosage of peptide 50 ng
[21] = release 15 min. after sc injection, dosage of peptide 100 ng
[22] = release 15 min. after sc injection, dosage of peptide 1000 ng
[23] = release 30 min. after sc injection, dosage of peptide 50 ng
[24] = release 30 min. after sc injection, dosage of peptide 100 ng
[25] = release 30 min. after sc injection, dosage of peptide 1000 ng
[26] = release 60 min. after sc injection, dosage of peptide 300 ng
[27] = release 60 min. after sc injection, dosage of peptide 3000 ng

CC(C)C[C@H](NC(=O)CNC(=O)[C@H](Cc1ccc(O)cc1)NC(=O)[C@H](CO)NC(=O)[C@H](Cc1c[nH]c2ccccc12)NC(=O)[C@H](Cc1c[nH]cn1)NC(=O)[C@@H]1CCC(=O)N1)C(=O)N[C@@H](CCCNC(=N)N)C(=O)N1CCC[C@H]1C(=O)NCC(N)=O [LHRH, pGlu--His--Trp--Ser--Tyr--Gly--Leu--Arg--Pro--Gly--NH2, reference compound]
FSH % change (release of FSH [1]; [9]): 100%
FSH % change (release of FSH [1]; [10]): 100%
FSH (release of FSH [1]; [11]): 455 ng/mL
FSH % change (release of FSH [1]; [12]): 100%
FSH % change (release of FSH [1]; [13]): 100%
FSH (release of FSH [1]; [14]): 576 ng/mL
FSH % change (release of FSH [1]; [15]): 100%
FSH % change (release of FSH [1]; [16]): 100%
FSH % change (release of FSH [1]; [17]): 100%
FSH % change (release of FSH [1]; [18]): 100%
FSH % change (release of FSH [1]; [19]): 100%
FSH (release of FSH [1]; [20]): 550 ng/mL
FSH (release of FSH [1]; [21]): 465 ng/mL
FSH (release of FSH [1]; [22]): 483 ng/mL
FSH (release of FSH [1]; [23]): 515 ng/mL
FSH (release of FSH [1]; [24]): 494 ng/mL and 434 ng/mL
FSH (release of FSH [1]; [25]): 691 ng/mL and 1010 ng/mL
FSH (release of FSH [1]; [26]): 596 ng/mL and 554 ng/mL
FSH (release of FSH [1]; [27]): 1173 ng/mL and 1501 ng/mL
LH % change (release of LH [2]; [9]): 100%
LH % change (release of LH [2]; [10]): 100%
LH (release of LH [2]; [11]): 21 ng/mL
LH % change (release of LH [2]; [12]): 100%
LH % change (release of LH [2]; [13]): 100%
LH (release of LH [2]; [14]): 39 ng/mL
LH % change (release of LH [2]; 15 min. after sc injection, 1000 ng, experiment marked *, LHRH* = 100): 100%
LH % change (release of LH [2]; [15]): 100%
LH % change (release of LH [2]; [16]): 100%
LH % change (release of LH [2]; [17]): 100%
LH % change (release of LH [2]; [18]): 100%
LH % change (release of LH [2]; [19]): 100%
LH (release of LH [2]; [20]): 16 ng/mL
LH (release of LH [2]; [21]): 24 ng/mL
LH (release of LH [2]; [22]): 57 ng/mL
LH (release of LH [2]; [23]): 18 ng/mL
LH (release of LH [2]; [24]): 11 ng/mL
LH (release of LH [2]; [26]): 11 ng/mL and 17 ng/mL
LH (release of LH [2]; [27]): 82 ng/mL and 113 ng/mL
activity (potency) to release LH relative to P/O LHRH [3]: 100%
activity to release FSH relative to P/O LHRH (rat pituitary cells): 100%
FSH released (release of FSH [4]): ca. 18,000 ng/ml

NC(=O)CC[C@H](NC(=O)[C@H](Cc1c[nH]c2ccccc12)NC(=O)CNC(=O)[C@H](Cc1c[nH]cn1)NC(=O)[C@H](CO)NC(=O)[C@H](Cc1c[nH]c2ccccc12)NC(=O)[C@H](Cc1c[nH]cn1)NC(=O)[C@@H]1CCC(=O)N1)C(=O)N1CCC[C@H]1C(=O)NCC(N)=O [[His^5 Trp^7 Gln^8]--LHRH, p-Glu His Trp Ser His Gly Trp Gln Pro Gly-NH2] ([pGlu]HWSHGWQPG-NH2)
FSH % change (release of FSH [1]; [18]): 68% and 67.8%
FSH (release of FSH [1]; [21]): 403 ng/mL
FSH (release of FSH [1]; [22]): 486 ng/mL
FSH (release of FSH [1]; [26]): 404 ng/mL
FSH (release of FSH [1]; [27]): 1161 ng/mL
LH % change (release of LH [2]; [18]): 46%
LH % change (release of LH [2]; [19]): 65%
LH (release of LH [2]; [21]): 17 ng/mL
LH (release of LH [2]; [22]): 66 ng/mL
LH (release of LH [2]; [26]): 5 ng/mL
LH (release of LH [2]; [27]): 53 ng/mL
release of LH compared with LHRH (release of LH [2]): released less LH; also recorded: released equivalent levels of LH and FSH when monitored 15 minutes after injection; also recorded: as effective at 100 ng as LHRH; also recorded: about two times as effective as [His^5, Trp^7 Leu^8 ]-LHRH
level at which effectiveness in the radioreceptor assay for LHRH is achieved, times that of LHRH [5]: 46 times
release of FSH compared with LHRH (release of FSH [6]): as much FSH at the higher dosage of 3000 ng as LHRH; also recorded: released equivalent levels of LH and FSH when monitored 15 minutes after injection; also recorded: released as much FSH as LHRH

NC(=O)CNC(=O)[C@@H]1CCCN1C(=O)[C@H](Cc1ccc(O)cc1)NC(=O)[C@H](Cc1c[nH]c2ccccc12)NC(=O)CNC(=O)[C@H](Cc1c[nH]cn1)NC(=O)[C@H](CO)NC(=O)[C@H](Cc1c[nH]c2ccccc12)NC(=O)[C@H](Cc1c[nH]cn1)NC(=O)[C@@H]1CCC(=O)N1 [[His^5 Trp^7 Tyr^8] (Chicken II), pGlu--His--Trp--Ser--His--Gly--Trp--Tyr--Pro--Gly--NH2, reference compound] ([pGlu]HWSHGWYPG-NH2)
FSH % change (release of FSH [1]; [16]): 62%
FSH % change (release of FSH [1]; [18]): 58%
FSH % change (release of FSH [1]; [19]): 55%
release of FSH (release of FSH [1]; dose level 100 ng): 62%
release of FSH (release of FSH [1]; dose level 1000 ng): 86%
FSH (release of FSH [1]; [24]): 305 ng/mL
FSH (release of FSH [1]; [25]): 596 ng/mL
FSH (release of FSH [1]; [26]): 344 ng/mL
FSH (release of FSH [1]; [27]): 644 ng/mL
LH % change (release of LH [2]; [16]): 18%
LH % change (release of LH [2]; [17]): 39%
LH % change (release of LH [2]; [18]): 32%
LH % change (release of LH [2]; [19]): 10%
release of LH (release of LH [2]; dose level 100 ng): 18%
release of LH (release of LH [2]; dose level 1000 ng): 30%
LH (release of LH [2]; [24]): 2 ng/mL
LH (release of LH [2]; [25]): 14 ng/mL
LH (release of LH [2]; [26]): 3.5 ng/mL
LH (release of LH [2]; [27]): 8.4 ng/mL
activities to release LH compared with LHRH (Table I) [3]: about 1/3
activity (potency) to release LH relative to P/O LHRH [3]: 32%
activities to release FSH compared with LHRH (Table I) (rat pituitary cells): about 1/3
activity to release FSH relative to P/O LHRH (rat pituitary cells): 41%

CC(C)C[C@H](NC(=O)CNC(=O)[C@H](Cc1ccc(O)cc1)NC(=O)[C@H](CO)NC(=O)[C@H](Cc1c[nH]c2ccccc12)NC(=O)[C@H](Cc1c[nH]cn1)NC(=O)[C@@H]1CCC(=O)N1)C(=O)N[C@@H](CC(C)C)C(=O)N1CCC[C@H]1C(=O)NCC(N)=O [[Leu^8]--LHRH, p-Glu His Trp Ser Tyr Gly Leu Leu Pro Gly-NH2, reference compound]
release of FSH compared with LHRH (release of FSH [1]; sc injection, dose and time as stated in the source): relatively low activities
release of LH compared with LHRH (release of LH [2]): relatively low activities
activity for FSH release (release of FSH [7]): Inactive
activity for LH release (release of LH [8]): Inactive

CC(C)C[C@H](NC(=O)[C@H](Cc1c[nH]c2ccccc12)NC(=O)CNC(=O)[C@H](Cc1ccc(O)cc1)NC(=O)[C@H](CO)NC(=O)[C@H](Cc1c[nH]c2ccccc12)NC(=O)[C@H](Cc1c[nH]cn1)NC(=O)[C@@H]1CCC(=O)N1)C(=O)N1CCC[C@H]1C(=O)NCC(N)=O [[Trp^7 Leu^8]--LHRH, pGlu--His--Trp--Ser--Tyr--Gly--Trp--Leu--Pro--Gly--NH2, reference compound] ([pGlu]HWSYGWLPG-NH2)
FSH % change (release of FSH [1]; [19]): 22%
FSH (release of FSH [1]; [27]): 258 ng/mL
LH % change (release of LH [2]; [19]): 3.0%
LH (release of LH [2]; [27]): 2.5 ng/mL
activities to release LH compared with LHRH (Table I) [3]: extremely low activities
activity (potency) to release LH relative to P/O LHRH [3]: 2-3%
activities to release FSH compared with LHRH (Table I) (rat pituitary cells): extremely low activities
